Target: T1, TLR⅞ (Mus musculus, UniProt P58681)
T1 sequence (P58681 27-1050): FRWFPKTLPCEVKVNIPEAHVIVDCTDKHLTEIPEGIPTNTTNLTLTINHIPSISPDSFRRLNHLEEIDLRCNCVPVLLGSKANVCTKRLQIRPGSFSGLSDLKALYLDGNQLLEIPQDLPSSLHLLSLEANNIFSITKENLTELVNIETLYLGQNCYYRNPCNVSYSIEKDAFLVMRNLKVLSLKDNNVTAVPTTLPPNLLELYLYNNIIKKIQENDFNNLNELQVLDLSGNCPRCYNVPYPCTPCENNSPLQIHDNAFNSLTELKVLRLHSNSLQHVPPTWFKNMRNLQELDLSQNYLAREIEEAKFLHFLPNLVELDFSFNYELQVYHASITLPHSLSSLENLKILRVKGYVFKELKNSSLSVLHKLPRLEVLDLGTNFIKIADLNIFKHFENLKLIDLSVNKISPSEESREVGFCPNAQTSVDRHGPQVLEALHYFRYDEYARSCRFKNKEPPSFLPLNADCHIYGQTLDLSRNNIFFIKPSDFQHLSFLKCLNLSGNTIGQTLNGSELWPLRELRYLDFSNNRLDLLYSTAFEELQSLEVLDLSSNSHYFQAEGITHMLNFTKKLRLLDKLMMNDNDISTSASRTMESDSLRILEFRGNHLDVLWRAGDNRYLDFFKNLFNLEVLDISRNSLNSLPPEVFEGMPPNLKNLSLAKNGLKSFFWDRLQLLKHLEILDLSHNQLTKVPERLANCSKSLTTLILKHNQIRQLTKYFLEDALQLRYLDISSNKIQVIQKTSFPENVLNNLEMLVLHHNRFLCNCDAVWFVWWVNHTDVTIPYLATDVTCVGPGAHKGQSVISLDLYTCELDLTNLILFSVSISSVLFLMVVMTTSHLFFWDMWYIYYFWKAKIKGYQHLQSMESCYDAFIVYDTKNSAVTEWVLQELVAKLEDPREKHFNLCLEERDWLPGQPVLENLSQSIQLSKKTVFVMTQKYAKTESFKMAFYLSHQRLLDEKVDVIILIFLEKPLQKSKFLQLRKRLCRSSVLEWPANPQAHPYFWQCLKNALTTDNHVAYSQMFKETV
Assay: Mouse spleenocytes cell assay with R848 stimulation (IL6/TNFa ELISA)
Type: cell-based
Settings: R848 1 µM
Protocol: Mouse spleen from healthy, female C57BL-6/N mice (n=2) were taken out in 50 mL tubes with B-Cell medium and the experiment started directly. The spleen was grinded through a cell strainer by using the punch of a syringe into a 50 mL Falcon tube. Cell strainer and punch were flushed with appropriate amount of washing buffer to avoid cellloss. Then the spleenocytes were centrifuged for 10 min at 552 xg (1600 rpm), 4° C. The erythrocytes within the cell pellet were lysed by resuspending pellet in 1 ml ACK-lysing buffer (4° C.) and incubate for 1 minute at RT. Lysis was stopped by filling up to 50 ml with washing buffer and centrifuged for 10 min at 552 xg (1600 rpm), 4° C. Cells were washed in B-cell Media (IMDM + 25 mM HEPES + 10%FCS + pen/strep + NEAA 10 nM + Sodium Pyrovat 100 nM, β-Mercaptoethanol 50 nM), counted and seeded in a density of 148500 cells per well in a 96 well MTP (135µl of 1,1×106c/ml). The cells were pre-treated with antimalarials (15 µL, in different concentrations according to dose-response curve ranging from 100 pM-50 µM)) for 30 min, at 37° C., 5% CO2, followed by TLR⅞ stimulation with R848 (15 µl, final concentration of 1 µM) or a TLR9 stimulation with CpG (15 µl, final concentration of 5 µM) and incubated at 37° C., 5% CO2 for 18 - 24 hours.
Supernatants were collected and transferred into a 96 well round bottom MTP and stored at -20° C. until ELISA formouse IL6 and mouse TNFa were performed. Plates were read directly after assay on an Envision Multiplate reader. Results were analyzed with GraphPadPrism V8.0. Plot the calculated amount of produced IL6 or TNFa in pg/ml on y-axis and the concentration of each MSC concentration at half logarhythmic scaling on the x-axis to achieve a dose-response curve. Determine IC50 values using Graph Pad Prism analysis software (Transform Y values using “X=Log(X) and log inhibitor vs. response; Variable slope (four parameters).

CCN(CCO)CCCC(C)Nc1ccnc2cc(Cl)ccc12 (stereo not drawn) [HYDROXY-CHLOROQUINE HCQ, hydroxychloroquine]
IC50 TLR⅞ (IL6 readout) mouse spleenocytes (n=2) (IL6 readout): no suppr | IC50 (IL6 readout, read-out: IC50 TLR⅞ (IL6 readout) mouse spleenocytes (n=2)): 27.1 µM | IC50 TLR⅞ (TNF readout) mouse spleenocytes (n=2) (TNF readout): no suppr
